Converted amounts (≈) assume the structure as drawn. Read-outs that look alike come from different tables or passages of the source. Marks after values point to notes of the source that are not given here. Where only a bound is given, the exact number is not on record here.

In data set [1] the test system is C. albicans ATCC MYA-1237(R) (strain F). Conditions: azoles, previously reported (Shrestha 2015); cited from earlier work.
For data set [2], the system named is C. albicans ATCC MYA-2876(S) (strain C). Conditions: azoles, previously reported (Shrestha 2015); cited from earlier work.
For data set [3], the system named is Aspergillus nidulans ATCC 38163 (strain L). The note with it: azoles, previously reported (Shrestha 2015); cited from earlier work.
Data set [4] has as its system Candida albicans ATCC 10231 (strain A). The note with it: azoles, previously reported (Shrestha 2015); cited from earlier work.
Data set [5] relates to Candida glabrata ATCC 2001 (strain H). The data set can be described thus: Antifungal MIC determination (CLSI M27-A3, 96-well). Conditions: for MIC: Nakaseomyces glabratus; for MIC-0: compounds 1-4n and AmB, 48 h, RPMI 1640. The data set is classed as cell-based. The procedure, abridged: (§1)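 CLSI M27-A3 microdilution, modified; RPMI 1640/0.165 M MOPS pH 7.0; final drug 12.5-0.02 μg/mL (2-fold series), inoculum 5×10^3 CFU/mL; 48 h, 35° C. Aspergillus: spores from 3-5 day PDA cultures at 25° C, tested likewise.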

For data set [6], the system named is Candida krusei ATCC 6258 (strain I). The data set is described as above. The data set is classed as cell-based. The note with it: for MIC: Pichia kudriavzevii; for MIC-0: compounds 1-4n and AmB, 48 h, RPMI 1640. The procedure, abridged:
as §1

In data set [7] the test system is Candida parapsilosis ATCC 22019 (strain J). The data set is described as above. The data set is classed as cell-based. Conditions: for MIC: Lodderomyces parapsilosis; for MIC-0: compounds 1-4n and AmB, 48 h, RPMI 1640. In outline: as §1
Data set [8] relates to C. albicans ATCC 64124 (strain B). The note with it: azoles, previously reported (Shrestha 2015); cited from earlier work.
Data set [9] has as its system Aspergillus flavus ATCC MYA-3631 (strain K). The data set can be described thus: Antifungal MIC determination, filamentous fungi spores. The data set is classed as cell-based. Conditions: all compounds. In outline:
as §1

In data set [10] the test system is C. albicans ATCC MYA-2310(S) (strain E). Conditions: azoles, previously reported (Shrestha 2015); cited from earlier work.
In data set [11] the test system is C. albicans ATCC 90819(R) (strain D). Conditions: azoles, previously reported (Shrestha 2015); cited from earlier work.
In data set [12] the test system is C. albicans ATCC MYA-1003(R) (strain G). The note with it: azoles, previously reported (Shrestha 2015); cited from earlier work.
The nature of data set [13]: Solubility in the RPMI 1640 medium used for MIC determination. Conditions: medium of MIC determination.
The subject of data set [14] is Candida albicans ATCC 10231 (strain A). The data set can be described thus: Antifungal MIC determination (CLSI M27-A3, 96-well). The data set is classed as cell-based. The note with it: for MIC-0: strain A, compounds 1-4n and AmB, 48 h, RPMI 1640. In outline:
as §1

Data set [15] relates to C. albicans ATCC MYA-2310(S) (strain E). The description is as above. The data set is classed as cell-based, Candida albicans. Conditions: for MIC-0: strain E, compounds 1-4n and AmB, 48 h, RPMI 1640. The procedure, abridged: as §1
Data set [16] relates to C. albicans ATCC MYA-2876(S) (strain C). The description is as above. The data set is classed as cell-based, Candida albicans. The note with it: for MIC-0: strain C, compounds 1-4n and AmB, 48 h, RPMI 1640. In outline: as §1
Data set [17] concerns C. albicans ATCC 64124 (strain B). The data set can be described thus: microbe, parasite or virus in culture. The data set is classed as cell-based, Candida albicans. Conditions: for MIC-0: strain B, compounds 1-4n and AmB, 48 h, RPMI 1640. In outline: as §1
The test system of data set [18] is C. albicans ATCC MYA-1237(R) (strain F). The data set can be described thus: microbe, parasite or virus in culture. The data set is classed as cell-based, Candida albicans. The note with it: for MIC-0: strain F, compounds 1-4n and AmB, 48 h, RPMI 1640. The procedure, abridged: as §1
Data set [19] concerns C. albicans ATCC 90819(R) (strain D). The data set can be described thus: microbe, parasite or virus in culture. The data set is classed as cell-based, Candida albicans. The note with it: for MIC-0: strain D, compounds 1-4n and AmB, 48 h, RPMI 1640. The procedure, abridged: as §1
The subject of data set [20] is C. albicans ATCC MYA-1003(R) (strain G). The data set can be described thus: microbe, parasite or virus in culture. The data set is classed as cell-based, Candida albicans. Conditions: for MIC-0: strain G, compounds 1-4n and AmB, 48 h, RPMI 1640. The procedure, abridged: as §1
In data set [21] the test system is C. albicans ATCC 10231 (strain A). The data set can be described thus: ROS production assay (DCFH-DA). The data set is classed as cell-based, Candida albicans. The note with it: 1× and 2× MIC (H2O2 1 mM), 1-h treatment. Here is the method:
ROS production assay was performed as previously described with minor modifications. […] Once entering the cells, the DCFH-DA probe is first hydrolyzed to the non-fluorescent 2′,7′-dichlorodihydrofluorescein (DCFH) by cellular esterases. […] A colony of C. albicans ATCC 10231 (strain A) was used to inoculate 5 mL of PDB in a Falcon tube and grown overnight at 35° C. at 200 rpm.
Thus, whether the compounds of the invention would also induce ROS against C. albicans was studied. […] 2′,7′-dichlorodihydrofluorescin diacetate (DCFH-DA) was then used to detect and visualize ROS production (FIG. 5). As a positive control, cells were treated with H2O2, which is an inducer of hydroxyl radical formation.

Data set [22] deals with Aspergillus terreus ATCC MYA-3633 (strain M). The data set can be described thus: Antifungal MIC determination, filamentous fungi spores. The data set is classed as cell-based. Conditions: for MIC-0: strain M, all compounds, spores. In outline: as §1
Data set [23] has as its system Aspergillus nidulans ATCC 38163 (strain L). Described as above. The data set is classed as cell-based. Conditions: for MIC-0: strain L, spores. In outline: as §1
The test system of data set [24] is C. albicans ATCC 64124 (strain B). The data set is classed as cell-based, Candida albicans. Here is the method: The efficiency of the compounds to kill C. albicans ATCC 64124 (strain B) was monitored using a previously published protocol. The cell suspensions were prepared to achieve an inoculum of approximately 1-4×10^5 CFU/mL in RPMI 1640 medium at 35° C. […] After fungal cell addition, at 0, 3, 6, 9, 12, and 24 h, the tubes were vortexed and 100 μL aliquots were removed from each solution, spread onto PDA plates, and incubated at 35° C. Colony counts were determined after 24 h of incubation. The experiments were performed in duplicate (FIG. 2).
Time-kill assays with ebsulfur (2a) and analogue 3a (FIG. 2) were performed to determine the rate of fungicidal activity of the compounds if the invention.

In data set [25] the test system is Aspergillus strains (K-M). The data set can be described thus: Antifungal MIC, summary over Aspergillus strains. The data set is classed as cell-based. Conditions: spores. The method, then: Fungal MIC determination experiments were performed using untreated 96-well plates (Corning). Cells were counted either by using a hemocytometer (Hausser Scientific, Horsham, Pa., USA) or by measuring optical density at attenuance of 600 nm (OD600) by using a Genesys 20 spectrophotometer (Thermo Scientific, Waltham, Mass., USA). Spectrophotometric and colorimetric measurements in 96-well plates were performed using a SpectraMax M5 spectrometer (Molecular Devices, Sunnyvale, Calif., USA).
Yeast strains Candida albicans ATCC 10231 (strain A), C. albicans ATCC 64124 (strain B), and C. albicans ATCC MYA-2876(S) (strain C) were kindly provided by Dr. Jon Y. Takemoto (Utah State University, Logan, UT, USA). C. albicans ATCC MYA-90819(R) (strain D), C. albicans ATCC MYA-2310(S) (strain E), C. albicans ATCC 1237(R) (strain F), C. albicans ATCC MYA-1003(R) (strain G), Candida glabrata ATCC 2001 (strain H), Candida krusei ATCC 6258 (strain I), and Candida parapsilosis ATCC 22019 (strain J) were obtained from the American Type Culture Collection (ATCC, Manassas, Va., USA). […]
The MIC values against fungal strains were determined based on a previously published protocol. MIC values for ebsulfur (2a) analogues against fungal cells were evaluated in 96-well plates as described in the CLSI document M27-A3 with minor modifications. […]

The mark [26] stands for this setting: Candida albicans, read-out: MIC-2.

In the case of `OC(Cn1cncn1)(Cn1cncn1)c1ccc(F)cc1F` [FLC, fluconazole], the MIC-2 in data set [1] is 62.5^a μg/mL; in data set [2], 15.6^a μg/mL; in data set [4] it was 62.5^a μg/mL; in data set [8], >125^a μg/mL; in [10], >125^a μg/mL; in data set [11], >125^a μg/mL. Besides, the MIC-2 in [12] is recorded as 62.5^a μg/mL. Further, the MIC-0 in [3] is 6.25^a μg/mL. The MIC in data set [5] (ATCC2001, strain H, azoles, read-out: MIC-2) is > 31.2 µg/mL; in data set [6] (ATCC6258, strain I, azoles, read-out: MIC-2) it was > 31.2 µg/mL; in data set [7] (ATCC22019, strain J, azoles, read-out: MIC-2), 1.95 µg/mL (≈ 6.37 µM); in data set [9] (Aspergillus flavus, read-out: MIC-0) it was 6.25 µg/mL (≈ 20.4 µM).
For `O=c1c2ccccc2sn1-c1ccc2ccccc2n1` [Compound 2o], the “solubility in the RPMI 1640 medium” value in [13] is “solubility issues”.
On to `O=c1c2ccccc2[se]n1-c1ccccc1` [Compound 1, ebselen, reference compound], for which the MIC-0 in data set [5] (strain H) was 1.56 µg/mL (≈ 5.69 µM); in data set [6] (strain I), 1.56 µg/mL (≈ 5.69 µM); in [14], 12.5 µg/mL (≈ 45.6 µM); in data set [7] (strain J) it was 6.25 µg/mL (≈ 22.8 µM); in [15], 3.13 µg/mL (≈ 11.4 µM); in data set [16], 12.5 µg/mL (≈ 45.6 µM). The MIC-0 is 12.5 µg/mL (≈ 45.6 µM) in data set [17]; >12.5 µg/mL in data set [18]; 1.56 µg/mL (≈ 5.69 µM) in data set [19]; 12.5 µg/mL (≈ 45.6 µM) in data set [20]; 1.56 µg/mL (≈ 5.69 µM) in data set [22]; 1.56 µg/mL (≈ 5.69 µM) in data set [23]. This compound showed an MIC-0 in [9] of 6.25 µg/mL (≈ 22.8 µM). In addition, the “ROS induction (DCFH-DA fluorescence)” value in data set [21] is “highly fluorescent”. Further, in data set [24] (1× MIC), the “fungicidal or fungistatic effect” value is listed as “potent fungicidal activity”. Further, in data set [24] (1× MIC), the “time of complete fungal cell death” value was 6 h. Further, the “time from which completely fungicidal” value in [24] (2× MIC) came out at 3 h.
Take `O=c1c2ccccc2sn1C1CCCCCCC1` [Compound 3n]: the MIC-0 was found to be 3.13 µg/mL (≈ 12 µM) in data set [5] (strain H); 0.39 µg/mL (≈ 1.49 µM) in data set [6] (strain I); 3.13 µg/mL (≈ 12 µM) in data set [14]; 3.13 µg/mL (≈ 12 µM) in data set [7] (strain J); 6.25 µg/mL (≈ 23.9 µM) in data set [15]; 6.25 µg/mL (≈ 23.9 µM) in [16]. Further, the MIC-0 in data set [17] was 3.13 µg/mL (≈ 12 µM); in data set [18] it was 6.25 µg/mL (≈ 23.9 µM); in data set [19], 6.25 µg/mL (≈ 23.9 µM); in data set [20], 6.25 µg/mL (≈ 23.9 µM); in data set [22], ≤0.02 µg/mL; in [23], 0.05 µg/mL (≈ 0.191 µM). In data set [9], the MIC-0 is ≤0.02 µg/mL. The “MIC against Aspergillus strains K-M, range” value in [25] is ≤0.02 to 0.05 µg/mL.
Regarding `O=c1c2ccccc2sn1C12CC3CC(CC(C3)C1)C2` [Compound 3o], the “solubility in the RPMI 1640 medium” value in data set [13] is reported as “not soluble”.
Regarding `C[C@@H](c1ncncc1F)[C@](O)(Cn1cncn1)c1ccc(F)cc1F` [VOR, voriconazole, reference compound], the MIC is 0.06 µg/mL (≈ 0.172 µM) in data set [5] (ATCC2001, read-out: MIC-2); 0.12 µg/mL (≈ 0.344 µM) in data set [6] (ATCC6258, read-out: MIC-2); 7.8 µg/mL (≈ 22.3 µM) in data set [14] (Candida albicans, ATCC10231, read-out: MIC-2); < 0.03 µg/mL in data set [7] (ATCC22019, read-out: MIC-2); 1.95 µg/mL (≈ 5.58 µM) in [15] (setting [26]); 0.975 µg/mL (≈ 2.79 µM) in [16] (setting [26]). Further, the MIC was > 31.2 µg/mL in data set [17] (Candida albicans, ATCC64124, read-out: MIC-2); 0.975 µg/mL (≈ 2.79 µM) in data set [18] (setting [26]); 1.95 µg/mL (≈ 5.58 µM) in data set [19] (Candida albicans, ATCC90819, read-out: MIC-2); 7.8 µg/mL (≈ 22.3 µM) in data set [20] (setting [26]); 0.12 µg/mL (≈ 0.344 µM) in [22] (Aspergillus terreus, read-out: MIC-0); 0.03 µg/mL (≈ 0.0859 µM) in [23] (Aspergillus nidulans, ATCC38163, read-out: MIC-0). Further, the “MIC against Aspergillus strains K-M, range” value in [25] is 0.03 to 0.24 µg/mL.

Values taken from patent publication US10544112B2, “Identification of ebsulfur analogues with broad-spectrum antifungal activity” (priority 2017, dated 2020).
